The test relates to E. coli Neumann. The test is described as follows: Subcutaneous ED100 in infected mice. In kind it is in vivo. Conditions: Escherichia coli, sc, mice infected with E. coli Neumann, mg/kg body weight, ED100 = dose that cures 100 % of the animals, read-out: Subkutane ED100 bei infizierten Mäusen.

Each structure is given as a SMILES string.

Regarding `Cc1c(C(=O)N2CN(C)CCN(C)C2)[n+]([O-])c2ccccc2[n+]1[O-]` [Beispiel 1], the ED100 was 5 to 10 mg/kg.

Source of the values: patent publication EP0001618A2, “Process for the preparation of di-N-oxides and their pharmaceutical use” (BAYER AG, priority 1977, dated 1979).
